Measured values from the NIST ThermoML archive (doi:10.1021/je400781b).
Numbers after ± are expanded uncertainties.

Assays:
[1] = refractive index (Na D-line) (dimensionless); details: 298.15 K; 101.33 kPa; Liquid; Standard Abbe refractometry
[2] = 101 kPa, Liquid; for speed of sound: Frequency=2.75 MHz, Pulse-echo method; for mass density: Vibrating tube method
[3] = xn = mol fraction of the nth substance listed; details: 101 kPa, Liquid, x2 = 0; for speed of sound: Frequency=2.75 MHz, Pulse-echo method; for mass density: Vibrating tube method

Row | SMILES | refractive index [1] | speed of sound ([2]; 293.15 K) [m/s] | mass density ([2]; 293.15 K) [kg/m3] | speed of sound ([2]; 298.15 K) [m/s] | mass density ([2]; 298.15 K) [kg/m3] | speed of sound ([2]; 303.15 K) [m/s] | mass density ([2]; 303.15 K) [kg/m3] | speed of sound ([2]; 308.15 K) [m/s] | mass density ([2]; 308.15 K) [kg/m3] | speed of sound ([2]; 313.15 K) [m/s] | mass density ([2]; 313.15 K) [kg/m3] | speed of sound ([3]; 293.15 K) [m/s] | mass density ([3]; 293.15 K) [kg/m3] | speed of sound ([3]; 298.15 K) [m/s] | mass density ([3]; 298.15 K) [kg/m3] | speed of sound ([3]; 303.15 K) [m/s] | mass density ([3]; 303.15 K) [kg/m3] | speed of sound ([3]; 308.15 K) [m/s] | mass density ([3]; 308.15 K) [kg/m3] | further results
1 | CCCC[n+]1ccn(C)c1.O=S(=O)([N-]S(=O)(=O)C(F)(F)F)C(F)(F)F | 1.4265 ± 0.0008 | 1237.9 ± 1.5 | 1439.23 ± 0.61 | 1226.7 ± 1.5 | 1434.44 ± 0.61 | 1215.6 ± 1.5 | 1429.65 ± 0.6 | 1204.6 ± 1.5 | 1424.88 ± 0.6 | 1193.7 ± 1.5 | 1420.12 ± 0.59 | – | – | – | – | – | – | – | – | –
2 | C1CCOC1 [tetrahydrofuran] + CCCC[n+]1ccn(C)c1.O=S(=O)([N-]S(=O)(=O)C(F)(F)F)C(F)(F)F | – | – | – | – | – | – | – | – | – | – | – | 1301.9 ± 1.2 | 887.52 ± 0.12 | 1277.5 ± 1.2 | 882.06 ± 0.13 | 1253.2 ± 1.2 | 876.57 ± 0.13 | 1229 ± 1.2 | 871.04 ± 0.13 | –
3 | CC#N [acetonitrile] | 1.3416 ± 0.0008 | 1298.2 ± 1.2 | 782 ± 0.15 | 1277.7 ± 1.2 | 776.6 ± 0.15 | 1257.2 ± 1.2 | 771.18 ± 0.15 | 1236.9 ± 1.2 | 765.72 ± 0.15 | 1216.6 ± 1.2 | 760.24 ± 0.16 | – | – | – | – | – | – | – | – | –
4 | CC#N [acetonitrile] + CCCC[n+]1ccn(C)c1.O=S(=O)([N-]S(=O)(=O)C(F)(F)F)C(F)(F)F | – | – | – | – | – | – | – | – | – | – | – | 1298.2 ± 1.2 | 782 ± 0.15 | 1277.7 ± 1.2 | 776.6 ± 0.15 | 1257.2 ± 1.2 | 771.18 ± 0.15 | 1236.9 ± 1.2 | 765.72 ± 0.15 | speed of sound ([3]; 313.15 K): 1216.6 ± 1.2 m/s; mass density ([3]; 313.15 K): 760.24 ± 0.16 kg/m3
5 | C1CCOC1 [tetrahydrofuran] | 1.4052 ± 0.0008 | 1301.9 ± 1.2 | 887.52 ± 0.12 | 1277.5 ± 1.2 | 882.06 ± 0.13 | 1253.2 ± 1.2 | 876.57 ± 0.13 | 1229 ± 1.2 | 871.04 ± 0.13 | – | – | – | – | – | – | – | – | – | – | –
